Test results published in patent US7604990B2, “Methods of regulating differentiation in stem cells” (ES Cell International Pte Ltd., priority 2002, dated 2009).

Key:
Assay type in all cases: cell-based, human
[1] = test system: ERKs (Erk1 and Erk2) in hES cells; experiment: ERK phosphorylation Western blot in hES cells (Example 1); conditions: hES cells, 5 min; S1P 10 μM, LPA 50 M, PDGF 20 ng/ml
Description: RT-PCR for LPL receptors (A, B), PDGFR-[…] (alpha) and PDGFR-[…] (beta) (C), SPK-1 and SPK-2 (D), with (+) or without (−) RT. Immunostaining of hES cells with Hoechst 33342 (E, H), PDGFR-[…] (F) or PDGFR-[…] (I) and GCTM-2 (G, J) antibodies. S1P, LPA and PDGF stimulate ERKs phosphorylation in hES cells. (K) Western blots experiment were performed using protein lysate from hES cells. Cells were pre-treated or not with U0126 (30 μM, 1 hr) and incubated for 5 min in the absence (C, control) or presence of S1P (S, 10 μM), LPA (L, […]) or PDGF (P, 20 ng/ml). The phosphorylation of Erk1 and Erk2 (P-Erk1 and P-Erk2) was assessed by immunoblotting with a polyclonal anti-active MAP kinase as described in Materials and Methods. After a stripping procedure, the same blots were reprobed with a monoclonal anti-MAP kinase, allowed the detection of Erk1 and Erk2.
hES-3 cells plated without MEF for 24 hrs were depleted of serum for a further 18 hrs. Cells pre-treated or not with U0126 (Sigma, 30 μM, 1 hr), were incubated in the presence of the different agents for 5 min and were lysed by removal of the supernatants and addition of a reducing loading buffer containing 1 mM sodium orthovanadate (Sigma). Protein lysates (approx. 80 μg) were separated by SDS-polyacrylamide gel electrophoresis (10% polyacrylamide, w/v), transferred to nitrocellulose (Hybond-nitrocellulose, Amersham) and immunoblotting was carried out using rabbit polyclonal anti-active mitogen-activated protein (MAPK) antibodies raised against a dually phosphorylated MAPK peptide (Promega, Madison, Wis., USA). Peroxidase-coupled secondary antibody (Dako) was detected by exposure of autoradiographic films in the presence of a chemiluminescent detection reagent (ECL, Amersham). Stripping of antibodies was achieved and membranes were then reprobed with rabbit polyclonal anti-ERK1/2 antibodies (Promega), and then with peroxidase-coupled secondary antibodies (Dako). Membranes probed with either rabbit polyclonal anti-active p38 (Promega) or rabbit polyclonal anti-active JNK (Promega) antibodies were also performed, using the same procedure as described above.

hES cells [2] = experiment: Spontaneous differentiation of hES colonies on MEF in serum-free medium, morphology (Example 2); conditions: 2 weeks serum-free on MEF; S1P 10 μM, PDGF-AB 20 ng/ml, LPA up to 50 μM
Description: hES-3 cells were cultured as previously described^1. The serum-free culture medium consisted of DMEM (without sodium pyruvate, glucose 4500 mg/l, Invitrogen, Mount Waverley, VIC, Australia) supplemented with insulin/transferrin/selenium 1%, β-mercaptoethanol 0.1 mM, NEAA 1%, glutamine 2 mM, Hepes 25 mM, penicillin 50 U/ml and streptomycin […] (all from Invitrogen). Media was changed every 2 days and cells were passaged every week S1P and dihydro-S1P were obtained from Biomol (Plymouth Meeting, Pa., USA). LPA was obtained from Sigma (Castle Hill, NSW, Australia). Extemporaneous dilutions of all lipids were made in water containing 0.1% fatty acid-free bovine serum albumin (BSA) (Sigma). […] Human PDGF-AB, PDGF-AA, PDGF-BB were from Prepro Tech Inc. (Rocky Hill, N.J., USA) and were used at 20 ng/ml.

hES cells [3] = experiment: Spontaneous differentiation of hES colonies on MEF in serum-free medium, morphology (Example 1); conditions: 8 days serum-free on MEF; S1P 10 μM, PDGF 20 ng/ml, LPA up to 50 μM
Description: (A) hES cells grown with MEF, before the depletion of serum from the medium. (B, C, D, E) hES cells grown without serum after 8 days, in the absence (B) or in the presence of S1P (10 μM) (C), PDGF (20 ng/ml) (D), S1P (10 μM) plus PDGF (20 ng/ml) (E). (F) hES cells grown without serum, in the presence or in the absence (control) of S1P (10 μM), PDGF (20 ng/ml), S1P (10 μM) plus PDGF (20 ng/ml). In A-E, data are representative of at least 3 independent experiments. In F, data expressed as percentages of alkaline phosphatase activity in absence of serum for eight days (% of control), are the means±SEM of at least 2 independent experiments, each run in triplicate.
hES-3 cells were cultured as previously described^1. The serum-free culture medium consisted of DMEM (without sodium pyruvate, glucose 4500 mg/l, Invitrogen, Mount Waverley, VIC, Australia) supplemented with insulin/transferrin/selenium 1%, β-mercaptoethanol 0.1 mM, NEAA 1%, glutamine 2 mM, Hepes 25 mM, penicillin 50 U/ml and streptomycin […] (all from Invitrogen). Medium was changed every 2 days and cells were passaged every week. S1P and dihydro-S1P were obtained from Biomol (Plymouth Meeting, Pa., USA) and were dissolved in methanol. LPA was obtained from Sigma (Castle Hill, NSW, Australia) and was dissolved in ethanol. Extemporaneous dilutions of all lipids were made in water containing 0.1% fatty acid-free bovine serum albumin (BSA) (Sigma). Human PDGF-AB, PDGF-AA, PDGF-BB were from PreproTech Inc. (Rocky Hill, N.J., USA).

hES cells [4] = experiment: GCTM-2/PCNA immunostaining cell count, dissociated hES cells without MEF and serum (Example 1); conditions: 4 days, no MEF, no serum
Excerpt: (A) Quantification of the number of GCTM2+ cells. (B) Quantification of the number of PCNA+/GCTM2+ cells.
In some experiments, hES-3 cells plated onto 8-well chamber slides, with or without MEF, were fixed in ethanol or paraformaldehyde (for PDGFR) the day after plating. In others, hES-3 cells were mechanically dissociated, in order to obtain a monolayer culture and then plated onto 8-well chamber slides without MEF and were fixed in ethanol 4 days after the first treatment. Immunostaining was performed using the following antibodies: anti human PDGFR-α or PDGFR-β (R&D Systems Inc.), GCTM-2, and/or PCNA (Chemicon, Boronia, VIC, Australia), TRA-1-60, Oct-4. Nuclei were evidenced by Hoechst-33342. Slides were mounted and observed by fluorescent microscopy with a Leica microscope at ×10, ×20 and ×40. Specificity was verified by the absence of any staining in the negative controls. In some experiments, cells were counted to determine the ratio of GCTM-2 positive (GCTM2+), PCNA positive (PCNA+) and GCTM2+/PCNA+ cells within the global population.

Compound | phosphorylation of ERKs [1] | size or morphology of hES cell colonies (spontaneous differentiation) (hES cells [2]) | colony growth/morphology (spontaneous differentiation) (hES cells [3]) | proliferating rate of hES cells (PCNA+) versus control (hES cells [4]) | cells GCTM2+ (hES cells [4]; mechanically dissociated, S1P 10 μM, PDGF 10 ng/ml) [%]
CCCCCCCCCCCCC/C=C/[C@@H](O)[C@@H](N)COP(=O)(O)O [S1P, Sphingosine-1-phosphate] | stimulated the phosphorylation of ERKs | flatter and less differentiated | flatter and less differentiated | no statistically significant difference | 
PDGF | stimulated the phosphorylation of ERKs | flatter and less differentiated | flatter and less differentiated | no statistically significant difference | 53.7±13.2
